Test results published in patent publication US20250136606A1, “MODULATORS OF TRPML, THEIR COMPOSITIONS AND METHODS OF USE” (Caraway Therapeutics, Inc., priority 2021, published 2025).
Where two headings read alike, the source gives them in different places.

Columns and labels:
Format in all cases: cell-based
TRPML1 = TRPML1 (Homo sapiens, UniProt Q9GZU1); assay: Fluorescent TRPML1 assay (Fluo4-AM calcium fluorescence in doxycycline-induced HEK-293 Trex cells)
In short: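 hTRPML1 (mutated for cell-surface expression) in HEK-293 Trex, dox 0.5 ug/mL o/n; Fluo4-AM 1 uM ~60 min, then ~60 min de-esterification, dark; modified Ringer's + 10 mM Ca. Cmpds 20 uM–6 nM final, half-log, n=3. Ex480/Em540; % activity vs ctrls; EC50 by nonlinear regression.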

TRPML2 = target: T1, TRPML2 (Homo sapiens, UniProt Q8IZK6); assay: Fluorescent TRPML2 assay (performed as for TRPML1, substituting the TRPML2 subtype)
T1 construct: expressed in transfected cells
T1 sequence (Q8IZK6 1-566): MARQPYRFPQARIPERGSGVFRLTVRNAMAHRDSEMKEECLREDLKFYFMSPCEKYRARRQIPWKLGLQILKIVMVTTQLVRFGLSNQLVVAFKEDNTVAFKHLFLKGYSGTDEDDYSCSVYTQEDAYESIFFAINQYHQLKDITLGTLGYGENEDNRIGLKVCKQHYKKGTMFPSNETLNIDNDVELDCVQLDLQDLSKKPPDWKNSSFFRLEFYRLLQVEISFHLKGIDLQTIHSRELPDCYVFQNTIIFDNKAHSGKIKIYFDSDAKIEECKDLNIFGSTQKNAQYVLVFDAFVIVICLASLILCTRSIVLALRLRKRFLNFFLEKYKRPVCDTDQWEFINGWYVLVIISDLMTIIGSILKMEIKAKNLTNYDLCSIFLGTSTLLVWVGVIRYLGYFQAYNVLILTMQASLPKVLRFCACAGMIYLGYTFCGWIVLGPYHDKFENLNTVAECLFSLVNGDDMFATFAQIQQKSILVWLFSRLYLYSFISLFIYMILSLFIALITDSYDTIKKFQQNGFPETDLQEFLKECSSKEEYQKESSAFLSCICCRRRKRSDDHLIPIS
In short: (§1)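 Agonist activity is scored as percent of plate controls from Fluo4 fluorescence after dye-loaded, doxycycline-induced HEK-293 Trex cells meet compound in high-calcium (10 mM) Ringer's. Compounds run in half-log dilutions from 20 micromolar final, in triplicate.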

TRPML3 = target: T2, TRPML3 (Homo sapiens, UniProt Q8TDD5); assay: Fluorescent TRPML3 assay (performed as for TRPML1, substituting the TRPML3 subtype)
T2 construct: expressed in transfected cells
T2 sequence (Q8TDD5 1-553): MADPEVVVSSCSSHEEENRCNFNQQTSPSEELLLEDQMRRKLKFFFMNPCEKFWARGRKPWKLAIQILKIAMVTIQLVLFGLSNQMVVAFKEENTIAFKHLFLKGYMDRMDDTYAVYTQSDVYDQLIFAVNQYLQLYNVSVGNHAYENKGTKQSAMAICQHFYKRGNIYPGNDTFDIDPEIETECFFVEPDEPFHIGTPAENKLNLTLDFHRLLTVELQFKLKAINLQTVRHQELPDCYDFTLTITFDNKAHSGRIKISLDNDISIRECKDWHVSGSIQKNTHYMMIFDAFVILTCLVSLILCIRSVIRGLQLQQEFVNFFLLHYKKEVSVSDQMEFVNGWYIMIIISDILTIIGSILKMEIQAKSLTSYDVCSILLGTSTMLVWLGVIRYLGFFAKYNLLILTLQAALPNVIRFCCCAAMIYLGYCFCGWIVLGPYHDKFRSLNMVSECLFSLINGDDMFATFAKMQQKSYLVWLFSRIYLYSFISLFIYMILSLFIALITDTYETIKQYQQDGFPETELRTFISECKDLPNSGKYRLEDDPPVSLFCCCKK
In short: as §1

Chain of TRPML1 (Q9GZU1 whole entry L15A/L16A/L577A/L578A, form open): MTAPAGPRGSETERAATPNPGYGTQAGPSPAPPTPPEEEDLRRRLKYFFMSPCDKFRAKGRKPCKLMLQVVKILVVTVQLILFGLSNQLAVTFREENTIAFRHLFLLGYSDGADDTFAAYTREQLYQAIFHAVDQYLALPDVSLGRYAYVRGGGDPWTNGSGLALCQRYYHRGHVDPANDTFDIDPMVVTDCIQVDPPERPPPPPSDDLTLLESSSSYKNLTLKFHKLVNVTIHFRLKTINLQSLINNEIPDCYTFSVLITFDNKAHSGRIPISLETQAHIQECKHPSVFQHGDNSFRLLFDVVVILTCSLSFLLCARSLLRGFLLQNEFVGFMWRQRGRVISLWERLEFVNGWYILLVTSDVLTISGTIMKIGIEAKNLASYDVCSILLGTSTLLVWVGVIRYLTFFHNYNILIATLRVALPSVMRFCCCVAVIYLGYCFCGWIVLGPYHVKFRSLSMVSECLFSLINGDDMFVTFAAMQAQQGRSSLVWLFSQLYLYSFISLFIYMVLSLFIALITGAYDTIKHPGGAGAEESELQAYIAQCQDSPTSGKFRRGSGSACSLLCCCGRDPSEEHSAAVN

Structure (SMILES)	EC50 (TRPML1; fluorescent calcium assay)	EC50 (TRPML2; fluorescent calcium assay)	EC50 (TRPML3; fluorescent calcium assay)	EC50 (TRPML1)	EC50 (TRPML2)	EC50 (TRPML3)
CCN(CC)c1cn(-c2cccc(Cl)c2)c2ncnc(N3CCN(C(=O)OC(C)(C)C)[C@H](C)C3)c12 [Compound 375, tert-butyl (R)-4-(7-(3-chlorophenyl)-5-(diethylamino)-7H-pyrrolo[2,3-d]pyrimidin-4-yl)-2-methylpiperazine-1-carboxylate]	< 100 nM	100 to 500 nM	< 100 nM	–	–	–
C[C@@H]1CN(c2ncnc3c2c(C(F)(F)F)cn3-c2cccc(Cl)c2)[C@@H](C)CN1C(=O)OC(C)(C)C [Compound 491, tert-Butyl (2R,5S)-4-(7-(3-chlorophenyl)-5-(trifluoromethyl)-7H-pyrrolo[2,3-d]pyrimidin-4-yl)-2,5-dimethylpiperazine-1-carboxylate]	< 100 nM	100 to 500 nM	< 100 nM	–	–	–
C[C@H]1CN(C(=O)OC(C)(C)C)CCN1c1ncnc2c1c(C1CC1)cn2C1CCCOC1 (stereo partly drawn) [Compound 345, tert-butyl (3S)-4-(5-cyclopropyl-7-(tetrahydro-2H-pyran-3-yl)-7H-pyrrolo[2,3-d]pyrimidin-4-yl)-3-methylpiperazine-1-carboxylate]	500 to 2000 nM	> 2000 nM	500 to 2000 nM	–	–	–
CC(C)(C)OC(=O)N1CCN(c2nccc3c2c(C2CC2)cn3-c2ccc(Cl)cc2)CC1 [Compound 156, tert-butyl 4-(1-(4-chlorophenyl)-3-cyclopropyl-1H-pyrrolo[3,2-c]pyridin-4-yl)piperazine-1-carboxylate]	100 to 500 nM	100 to 500 nM	< 100 nM	–	–	–
CCCN(C)c1cn(-c2cc(C#N)ccn2)c2ncnc(N3C[C@@H](C)N(C(=O)OC(C)(C)C)C[C@@H]3C)c12 [Compound 499, tert-butyl (2R,5S)-4-(7-(4-cyanopyridin-2-yl)-5-(methyl(propyl)amino)-7H-pyrrolo[2,3-d]pyrimidin-4-yl)-2,5-dimethylpiperazine-1-carboxylate]	–	–	–	< 100 nM	100 to 500 nM	< 100 nM
[2H]C([2H])([2H])[C@@H]1CN(c2ncnc3c2c(-c2ccccc2F)cn3-c2cc(C#N)ccn2)[C@@H](C)CN1C(=O)OC(C)(C)C [Compound 712, tert-butyl (2R,5S)-4-(7-(4-cyanopyridin-2-yl)-5-(2-fluorophenyl)-7H-pyrrolo[2,3-d]pyrimidin-4-yl)-5-methyl-2-(methyl-d3)piperazine-1-carboxylate]	–	–	–	< 100 nM	< 100 nM	< 100 nM
C[C@H]1CN(C(=O)OC(C)(C)C)CCN1c1ncnc2c1c(-c1nccnc1C(F)(F)F)cn2-c1cccc(Cl)c1 [Compound 273, tert-butyl (S)-4-(7-(3-chlorophenyl)-5-(3-(trifluoromethyl)pyrazin-2-yl)-7H-pyrrolo[2,3-d]pyrimidin-4-yl)-3-methylpiperazine-1-carboxylate]	100 to 500 nM	500 to 2000 nM	100 to 500 nM	–	–	–
Cc1cn(-c2cccc(Cl)c2)c2ncnc(N3C[C@@H](C)N(C(=O)OC(C)(C)C)C[C@@H]3C)c12 [Compound 671, tert-butyl (2R,5S)-4-(7-(3-chlorophenyl)-5-methyl-7H-pyrrolo[2,3-d]pyrimidin-4-yl)-2,5-dimethylpiperazine-1-carboxylate]	–	–	–	< 100 nM	100 to 500 nM	< 100 nM
C[C@@H]1CN(c2nccc3c2c(C(F)F)cn3-c2cc(C#N)ccn2)[C@@H](C)CN1C(=O)OC(C)(C)C [Compound 624, tert-butyl (2R,5S)-4-(1-(4-cyanopyridin-2-yl)-3-(difluoromethyl)-1H-pyrrolo[3,2-c]pyridin-4-yl)-2,5-dimethylpiperazine-1-carboxylate]	–	–	–	100 to 500 nM	> 2000 nM	100 to 500 nM
CCCN(CC)c1cn(-c2cc(C#N)ccn2)c2ncnc(N3CCN(C(=O)OC(C)(C)C)C[C@@H]3C)c12 [Compound 423, tert-butyl (S)-4-(7-(4-cyanopyridin-2-yl)-5-(ethyl(propyl)amino)-7H-pyrrolo[2,3-d]pyrimidin-4-yl)-3-methylpiperazine-1-carboxylate]	< 100 nM	< 100 nM	< 100 nM	–	–	–
C#Cc1ccnc(-n2cc(C(F)(F)F)c3c(N4C[C@@H](C)N(C(=O)OC(C)(C)C)C[C@@H]4C)ncnc32)c1 [Compound 716, tert-butyl (2R,5S)-4-(7-(4-ethynylpyridin-2-yl)-5-(trifluoromethyl)-7H-pyrrolo[2,3-d]pyrimidin-4-yl)-2,5-dimethylpiperazine-1-carboxylate]	–	–	–	100 to 500 nM	500 to 2000 nM	100 to 500 nM
C[C@H]1CN(C(=O)OC(C)(C)C)CCN1c1nccc2c1c(C1(C)CC1)cn2-c1cc(C#N)ccn1 [Compound 612, tert-butyl (S)-4-(1-(4-cyanopyridin-2-yl)-3-(1-methylcyclopropyl)-1H-pyrrolo[3,2-c]pyridin-4-yl)-3-methylpiperazine-1-carboxylate]	–	–	–	< 100 nM	500 to 2000 nM	100 to 500 nM

Further lines, results first:

EC50 (TRPML1; fluorescent calcium assay)	EC50 (TRPML2; fluorescent calcium assay)	EC50 (TRPML3; fluorescent calcium assay)	EC50 (TRPML1)	EC50 (TRPML2)	EC50 (TRPML3)	Structure (SMILES)
100 to 500 nM	500 to 2000 nM	100 to 500 nM	–	–	–	C[C@@H]1CN(C(=O)OC(C)(C)C)CCN1c1ncnc2c1c(N1CCCC1)cn2-c1cc(F)cc(F)c1 [Compound 255, tert-butyl (R)-4-(7-(3,5-difluorophenyl)-5-(pyrrolidin-1-yl)-7H-pyrrolo[2,3-d]pyrimidin-4-yl)-3-methylpiperazine-1-carboxylate]
100 to 500 nM	100 to 500 nM	100 to 500 nM	–	–	–	C[C@H]1CN(C(=O)OC(C)(C)C)CCN1c1ncnc2c1c(-c1ccccn1)cn2-c1cc(F)cc(F)c1 [Compound 235, tert-butyl-(S)-4-(7-(3,5-difluorophenyl)-5-(pyridin-2-yl)-7H-pyrrolo[2,3-d]pyrimidin-4-yl)-3-methylpiperazine-1-carboxylate]
< 100 nM	500 to 2000 nM	< 100 nM	–	–	–	C[C@H]1CN(C(=O)OC(C)(C)C)CCN1c1ncnc2c1c(C1CC1)cn2-c1cc(F)ccc1F [Compound 218, tert-butyl (S)-4-(5-cyclopropyl-7-(2,5-difluorophenyl)-7H-pyrrolo[2,3-d]pyrimidin-4-yl)-3-methylpiperazine-1-carboxylate]
100 to 500 nM	500 to 2000 nM	100 to 500 nM	–	–	–	C[C@H]1CN(c2ncnc3c2c(C2CC2)nn3-c2cc(F)cc(F)c2)CCN1C(=O)OC(C)(C)C [Compound 240, tert-Butyl (S)-4-(3-cyclopropyl-1-(3,5-difluorophenyl)-1H-pyrazolo[3,4-d]pyrimidin-4-yl)-2-methylpiperazine-1-carboxylate]
100 to 500 nM	500 to 2000 nM	100 to 500 nM	–	–	–	Cc1nccnc1-c1cn(-c2cccc(Cl)c2)c2ncnc(N3CCN(C(=O)OC(C)(C)C)CC3C)c12 (stereo not drawn) [Compound 161, tert-butyl 4-(7-(3-chlorophenyl)-5-(3-methylpyrazin-2-yl)-7H-pyrrolo[2,3-d]pyrimidin-4-yl)-3-methylpiperazine-1-carboxylate]
< 100 nM	100 to 500 nM	100 to 500 nM	–	–	–	C[C@H]1CN(C(=O)OC(C)(C)C)CCN1c1ncnc2c1c(C1CC1)cn2C1CCC1 [Compound 398, tert-butyl (S)-4-(7-cyclobutyl-5-cyclopropyl-7H-pyrrolo[2,3-d]pyrimidin-4-yl)-3-methylpiperazine-1-carboxylate]
